Data on three compounds can be found in paper PMC6151428, “Discovery of Novel N-Substituted Prolinamido Indazoles as Potent Rho Kinase Inhibitors and Vasorelaxation Agents” (Molecules : A Journal of Synthetic Chemistry and Natural …, 2017).

For orientation: IC50 means the concentration that gives 50% inhibition. Usually inhibition stands for the change of the read-out against control, counted positive when it falls. The low end stands for a weak effect, the high end for a strong effect. As a reminder, the EC50 is the concentration that produces a half-maximal response. A word on the melting point: it is the temperature of the solid-liquid transition.

Where two headings read alike, the source gives them in different places.

Data set [1] concerns the target T1, ROCK I (Homo sapiens, UniProt Q13464).
T1 construct: purchased Cyclex, Nagoya, Japan CY-1160
Nature of the data set: Rho kinase activity assay (Cyclex CY-1160 kit). It is filed as biochemical. Conditions: for IC50: a: means of multiple experiments (N = 4), errors within 30% of the mean, b: single determinations, read-out: IC50 against ROCK I; for inhibition at 20 µM: compound concentration 20 μM, single determinations; for ROCK I activity compared in words: comparison with DL0805 or between series; for fold more active than DL0805 (ROCK I IC50): relative to DL0805 IC50 6.7 μM. The method, then:
Briefly, the compounds at 20 μM were pre-incubated in a system wherein ROCK I (0.02 ng/μL) phosphorylates the kinase substrate’s myosin-binding subunit (MBS) pre-absorbed onto the microplate in the presence of Mg^2+ and ATP. Then, the system was washed after incubation at 30 °C for 30 min. 100 μL of horseradish peroxidase-conjugated anti-AF20 antibody was added to the wells and then incubated for 30 min at room temperature. The reaction system was then incubated with the substrate tetra-methylbenzidine (TMB), which can be catalyzed from a colorless solution to a blue solution. The absorbance was measured at a wavelength of 450 nm on a microplate reader. The color reflects the relative level of ROCK I activity. The inhibitory rates of the compounds on ROCK I were obtained from OD 450 nm and the IC50 values were calculated by nonlinear regression.

In data set [2] the test system is rat aortic rings. Nature of the data set: Vasorelaxant activity test, high-potassium model. Conditions: rat aortic rings constricted with high K+ (60 mmol/L); a: mean N = 6; b: single determination; -- = No activity. From the text:
(§1) Abnormalities in the Rho/ROCK signaling pathway are associated with various cardiovascular diseases, especially hypertension. The inhibition of the Rho/ROCK pathway can cause the vessels to relax. The norepinephrine (NE)- or potassium chloride (KCl)-induced model of the rat aortic ring can trigger sustained vessel contraction and is usually used to evaluate vasorelaxant activity. DL0805 has shown vasorelaxant activity. Therefore, the nine compounds with significant inhibition against ROCK I were further tested for their vasorelaxant activity in rat aortic rings in both the high-potassium and NE models (Table 3). […] The potent active compound 4b with excellent activity has been further evaluated, and further pharmacokinetic and safety evaluations are in progress.
(§2) Male Sprague-Dawley rats weighing 240–280 g (Vital River Laboratories, Beijing, China) were maintained in a 12-h light/dark cycle at 24 °C in a relative humidity of 60% room, and received food and water ad libitum. The animal care and handling were performed in accordance with the Guide for the Care and Use of Laboratory Animals published by the US National Institutes of Health and the Laboratories Institutional Animal Care and Use Committee of the Chinese Academy of Medical Science and Peking Union Medical College (ethic approval number: 00001012).
(§3) The vasorelaxant activity assay was performed as described previously. Briefly, the descending thoracic aorta was isolated after rats were euthanized by cervical dislocation. Then, the aorta was cut into ring segments (3–4 mm in length). The endothelial layer of the aorta was destroyed by gently rubbing the luminal surface with a moist cotton swab when necessary. Two stainless-steel triangles were inserted into the lumen of each ring. One triangle was fixed, and the other attached to a force transducer. Changes in isometric force were recorded on a BIOPAC polygraph (MP100WSW, Biopac Systems, Inc, Goleta, CA, USA). The rings were mounted in organ baths containing 10 mL Krebs-Henseleit (K-H) buffer with the following composition (mM): NaCl 120, KCl 4.8, MgSO4 1.4, KH2PO4 1.2, glucose 11.0, CaCl2 2.5, NaHCO3 25.0 and EDTA 0.01. The K-H buffer was continuously bubbled with 95% O2/5% CO2 at 37 °C. Rings were allowed to equilibrate for 60 min at a resting tension of 1.2 g with changes of buffer every 20 min.
(§4) After the equilibration period, the aortic rings were constricted with a high K^+ (60 mM) K-H solution to stimulate the tissue and to test its availability. Then, the rings were washed with normal K-H buffer to restore the basic tension of 1.2 g. The aortic rings were then stimulated with a high K^+ (60 mmol/L) K-H buffer ornorepinephrine (1 μM) to evaluate the vasorelaxant effects of the compounds. When the contraction reached the platform, compounds were added to the bath in batches at 5-min intervals to reach the accumulative concentrations of 1, 2, 5, 10, 25 and 50 μM. The tension of vessels was recorded and nonlinear regression was used to calculate the EC50 values.

Data set [3] relates to rat aortic rings. Briefly: Vasorelaxant activity test, NE model. Conditions: rat aortic rings constricted with norepinephrine (1 μM); a: mean N = 6; b: single determination; -- = No activity.
Source text: as §1, §2, §3, §4

The target in data set [4] is T1, ROCK I. On the set-up: method as in PMID 22609784. Conditions: lead discovered by high-throughput screening, previous article; read-out: IC50 against ROCK I; cited from earlier work.
In data set [5] the test system is rat aortic rings. Nature of the data set: Ex-vivo vasorelaxant activity in rat aortic rings (model not specified).
Source text: as §1
The vasorelaxant activity assay was performed as described previously. Briefly, the descending thoracic aorta was isolated after rats were euthanized by cervical dislocation. Then, the aorta was cut into ring segments (3–4 mm in length). […] Changes in isometric force were recorded on a BIOPAC polygraph (MP100WSW, Biopac Systems, Inc, Goleta, CA, USA). […]
After the equilibration period, the aortic rings were constricted with a high K^+ (60 mM) K-H solution to stimulate the tissue and to test its availability. […] The tension of vessels was recorded and nonlinear regression was used to calculate the EC50 values.

T1 sequence (Q13464 whole entry, species assumed): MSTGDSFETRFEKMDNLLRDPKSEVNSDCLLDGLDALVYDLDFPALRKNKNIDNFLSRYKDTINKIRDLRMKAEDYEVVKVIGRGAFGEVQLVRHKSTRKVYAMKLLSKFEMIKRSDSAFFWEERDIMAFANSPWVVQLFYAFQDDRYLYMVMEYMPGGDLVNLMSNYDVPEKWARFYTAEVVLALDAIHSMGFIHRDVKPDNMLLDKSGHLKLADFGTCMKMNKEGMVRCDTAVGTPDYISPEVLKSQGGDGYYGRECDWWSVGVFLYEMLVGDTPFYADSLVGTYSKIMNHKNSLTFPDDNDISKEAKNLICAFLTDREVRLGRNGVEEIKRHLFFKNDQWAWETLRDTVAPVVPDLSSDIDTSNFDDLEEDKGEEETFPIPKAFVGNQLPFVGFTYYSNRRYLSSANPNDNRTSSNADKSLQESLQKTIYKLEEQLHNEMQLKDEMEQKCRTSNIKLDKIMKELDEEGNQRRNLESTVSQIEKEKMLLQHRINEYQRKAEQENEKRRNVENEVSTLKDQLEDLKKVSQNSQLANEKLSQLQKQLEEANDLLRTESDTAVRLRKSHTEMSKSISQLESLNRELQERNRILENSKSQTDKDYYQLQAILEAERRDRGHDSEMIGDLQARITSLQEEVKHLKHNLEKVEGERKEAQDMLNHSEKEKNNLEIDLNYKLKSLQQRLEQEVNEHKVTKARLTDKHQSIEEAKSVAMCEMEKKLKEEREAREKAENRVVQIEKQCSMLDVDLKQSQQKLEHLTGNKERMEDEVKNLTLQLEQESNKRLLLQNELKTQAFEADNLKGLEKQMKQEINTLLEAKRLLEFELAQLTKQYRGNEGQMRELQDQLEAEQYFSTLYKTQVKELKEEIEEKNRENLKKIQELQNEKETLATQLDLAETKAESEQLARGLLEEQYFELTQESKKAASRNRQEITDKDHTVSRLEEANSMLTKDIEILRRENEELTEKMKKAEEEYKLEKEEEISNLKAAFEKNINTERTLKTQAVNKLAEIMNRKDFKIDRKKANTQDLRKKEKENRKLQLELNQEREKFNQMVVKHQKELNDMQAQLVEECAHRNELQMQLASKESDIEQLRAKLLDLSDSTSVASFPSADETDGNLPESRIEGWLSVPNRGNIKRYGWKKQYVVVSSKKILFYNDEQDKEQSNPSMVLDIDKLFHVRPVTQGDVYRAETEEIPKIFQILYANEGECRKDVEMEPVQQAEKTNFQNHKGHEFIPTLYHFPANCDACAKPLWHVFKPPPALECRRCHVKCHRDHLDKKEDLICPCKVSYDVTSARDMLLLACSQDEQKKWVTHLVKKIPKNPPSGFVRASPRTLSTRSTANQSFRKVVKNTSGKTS

For the compound `N#Cc1n[nH]c2ccc([N+](=O)[O-])cc12` [DL0805, 5-Nitro-1H-indazole-3-carbonitrile, reference compound], the IC50 is 6670 nM at ROCK I [1] and 6.7 µM on ROCK I [4]. The compound further showed an inhibition at 20 µM against ROCK I [1] of 72.3%. The EC50 in the data set with rat aortic rings [2] stood at 9.44 µM; in the data set with rat aortic rings [3], 28.8 µM.
For `O=C(Nc1ccc2[nH]ncc2c1)C1CCN(Cc2ccccc2)C1` (centres unmarked) [Compound 4a, 1-Benzyl-N-(1H-indazol-5-yl)pyrrolidine-3-carboxamide], the melting point lay within 203 to 204 °C. Further, at ROCK I [1], the IC50 was 270 nM, the “ROCK I activity compared in words” value is given as “activity profiles superior to DL0805”, at 20 µM the inhibition was 73.2% and the “fold more active than DL0805 (ROCK I IC50)” value is recorded as 24 fold. The same compound registered an EC50 in the data set with rat aortic rings [2] of 4 µM. This compound had an EC50 in the data set with rat aortic rings [3] of 5.62 µM. The “vasorelaxant activity compared with fasudil” value with rat aortic rings [5] was “comparable vasorelaxant activity to the approved drug fasudil”.
With `Cc1ccc(CN2CCC(C(=O)Nc3ccc4[nH]ncc4c3)C2)cc1` (centres unmarked) [Compound 4b, N-(1H-Indazol-5-yl)-1-(4-methylbenzyl)pyrrolidine-3-carboxamide], at ROCK I [1], the IC50 was 170 nM, the “ROCK I activity compared in words” value is “activity profiles superior to DL0805”, the inhibition at 20 µM amounted to 75.8% and the “fold more active than DL0805 (ROCK I IC50)” value came out at 39 fold. The compound further had an EC50 in the data set on rat aortic rings [2] of 3.47 µM. In the data set with rat aortic rings [3], this compound came in with an EC50 of 4.07 µM. Moreover, in the data set on rat aortic rings [5], the “vasorelaxant activity compared with fasudil” value is “comparable vasorelaxant activity to the approved drug fasudil”.
